Data as given in patent publication US20080096967A1, “Formulations for Injection of Catecholic Butanes, Including Ndga Compounds, Into Animals” (priority 2005, published 2008).

What was measured:
Beagle dogs = assay: 7-Day intravenous infusion toxicity study of M4N(CPE) in Beagle dogs; assay type: in vivo
Method: This study was conducted to evaluate the toxicokinetic profile of M4N formulated in 30% HP-β-CD and 25% PEG 300 when administered as a single intravenous infusion dose for seven consecutive days in beagle dogs. This study constitutes the first study of this particular formulation of M4N in dogs and was executed to evaluate the toxicity and compare tolerability of a diluted formulation (10 mg/mL versus 5 mg/mL).
A total of twelve beagle dogs (8 male/4 female) were dosed with M4N via a 54-minute (Group 2) or 108-minute (Groups 1, 3 and 4) intravenous infusion. All animals received seven doses, one per day over seven consecutive days.
The following parameters were evaluated: clinical observations and body weights. Test article analysis was performed on Study Days 1 and 7, blood samples (targeting a volume of 2.0 mL) were collected from each animal from an appropriate vessel at the following time points:
Gross necropsies were performed on Groups 1 and 3 animals and all injection sites were processed for histology. […] Discolored urine appeared in Groups 1 and 3. […] The finding is likely indicative of irritation due to multiple needle insertions in the same dosing area (cephalic vein). […] Finally, sporadic observations of diarrhea, emesis, mucoid feces and soft feces were noted. These observations are common in beagle dogs and were considered stress-induced and not test article-related.

[1] = M4N solubility in water miscible organic solvents up to 48 hours (RP-HPLC); assay type: physicochemical
Method: To prepare M4N samples, 200 μL of 100 mg/mL M4N dissolved in acetone were placed in 1.5 mL polypropylene microtubes. The solvent was allowed to evaporate at room temperature for 48 hours until the samples were completely dry.
The water miscible organic solvent formulations were prepared in 15 mL polypropylene centrifuge tubes. 10 mL of each formulation was prepared. Each solvent was added on the basis of weight using its respective density at 25° C. Following brief mixing, each formulation was filtered through a 0.45 μm surfactant free cellulose acetate (“SFCA”) filter into a fresh 15 mL tube. Formulations were kept at room temperature until ready for use.
At each time point, the samples were centrifuged for 2 minutes at 13,000 rpm to pellet any solid M4N. As noted in Table 25, over half of the formulation conditions examined were able to solubilize M4N to a concentration of greater than 10 mg/Ml.

For `COc1ccc(C[C@@H](C)[C@@H](C)Cc2ccc(OC)c(OC)c2)cc1OC` [Formulation M4N, meso-1,4-bis(3,4-dimethoxyphenyl)-2,3-dimethylbutane], the “injection site histology, treated vs controls” value (Beagle dogs; Group 3 (90 mg/kg) vs Group 1 (vehicle)) was “more irritating than the vehicle”, the gross necropsy findings (Beagle dogs; Groups 1 and 3) was “No other gross findings” and the detailed clinical observations (Beagle dogs; Groups 2, 3 and 4 (45 or 90 mg/kg), daily IV infusion for 7 days, 30% HP-β-CD and 25% PEG 300) was “transient reversible uncoordination of hindlimbs”. For the same compound, the M4N solubility ([1]; 14% EtOH, 30% PG, 40% Crem, 10% T80, 6% DMA, 2 hrs at room temperature) was 9.03 mg/mL, the M4N solubility ([1]; 14% EtOH, 30% PG, 40% Crem, 10% T80, 6% DMA, 24 hrs at room temperature) was 12.08 mg/mL and the M4N solubility ([1]; 14% EtOH, 30% PG, 40% Crem, 10% T80, 6% DMA, 48 hrs at room temperature) was 12.28 mg/mL. It also gave an M4N solubility ([1]; 14% EtOH, 30% PG, 40% Glyc, 10% T80, 6% DMA, 2 hrs at room temperature) of 0.85 mg/mL, an M4N solubility ([1]; 14% EtOH, 30% PG, 40% Glyc, 10% T80, 6% DMA, 24 hrs at room temperature) of 1.24 mg/mL and an M4N solubility ([1]; 14% EtOH, 30% PG, 40% Glyc, 10% T80, 6% DMA, 48 hrs at room temperature) of 1.48 mg/mL. For the same compound, the M4N solubility ([1]; 14% EtOH, 30% PG, 40% PEG300, 10% T80, 6% DMA, 2 hrs at room temperature) was 9.40 mg/mL, the M4N solubility ([1]; 14% EtOH, 30% PG, 40% PEG300, 10% T80, 6% DMA, 24 hrs at room temperature) was 10.55 mg/mL and the M4N solubility ([1]; 14% EtOH, 30% PG, 40% PEG300, 10% T80, 6% DMA, 48 hrs at room temperature) was 11.30 mg/mL. The M4N solubility ([1]; 18% EtOH, 30% PG, 40% Crem, 10% T80, 2% Benz, 2 hrs at room temperature) was 8.64 mg/mL, the M4N solubility ([1]; 18% EtOH, 30% PG, 40% Crem, 10% T80, 2% Benz, 24 hrs at room temperature) was 11.78 mg/mL and the M4N solubility ([1]; 18% EtOH, 30% PG, 40% Crem, 10% T80, 2% Benz, 48 hrs at room temperature) was 11.86 mg/mL. For the same compound, the M4N solubility ([1]; 18% EtOH, 30% PG, 40% Glyc, 10% T80, 2% Benz, 2 hrs at room temperature) was 0.58 mg/mL, the M4N solubility ([1]; 18% EtOH, 30% PG, 40% Glyc, 10% T80, 2% Benz, 24 hrs at room temperature) was 1.01 mg/mL and the M4N solubility ([1]; 18% EtOH, 30% PG, 40% Glyc, 10% T80, 2% Benz, 48 hrs at room temperature) was 1.15 mg/mL. For the same compound, the M4N solubility ([1]; 18% EtOH, 30% PG, 40% PEG300, 10% T80, 2% Benz, 2 hrs at room temperature) was 7.84 mg/mL, the M4N solubility ([1]; 18% EtOH, 30% PG, 40% PEG300, 10% T80, 2% Benz, 24 hrs at room temperature) was 9.79 mg/mL and the M4N solubility ([1]; 18% EtOH, 30% PG, 40% PEG300, 10% T80, 2% Benz, 48 hrs at room temperature) was 10.16 mg/mL. The M4N solubility ([1]; 24% EtOH, 30% PG, 30% Crem, 10% T80, 6% DMA, 2 hrs at room temperature) was 10.42 mg/mL, the M4N solubility ([1]; 24% EtOH, 30% PG, 30% Crem, 10% T80, 6% DMA, 24 hrs at room temperature) was 11.25 mg/mL and the M4N solubility ([1]; 24% EtOH, 30% PG, 30% Crem, 10% T80, 6% DMA, 48 hrs at room temperature) was 12.48 mg/mL. For the same compound, the M4N solubility ([1]; 24% EtOH, 30% PG, 30% Glyc, 10% T80, 6% DMA, 2 hrs at room temperature) was 1.63 mg/mL, the M4N solubility ([1]; 24% EtOH, 30% PG, 30% Glyc, 10% T80, 6% DMA, 24 hrs at room temperature) was 2.26 mg/mL and the M4N solubility ([1]; 24% EtOH, 30% PG, 30% Glyc, 10% T80, 6% DMA, 48 hrs at room temperature) was 2.52 mg/mL. The M4N solubility ([1]; 24% EtOH, 30% PG, 30% PEG300, 10% T80, 6% DMA, 2 hrs at room temperature) was 9.91 mg/mL, the M4N solubility ([1]; 24% EtOH, 30% PG, 30% PEG300, 10% T80, 6% DMA, 24 hrs at room temperature) was 10.80 mg/mL and the M4N solubility ([1]; 28% EtOH, 30% PG, 30% Crem, 10% T80, 2% Benz, 2 hrs at room temperature) was 8.98 mg/mL. It also gave an M4N solubility ([1]; 28% EtOH, 30% PG, 30% Crem, 10% T80, 2% Benz, 24 hrs at room temperature) of 11.35 mg/mL, an M4N solubility ([1]; 28% EtOH, 30% PG, 30% Crem, 10% T80, 2% Benz, 48 hrs at room temperature) of 11.28 mg/mL and an M4N solubility ([1]; 28% EtOH, 30% PG, 30% Glyc, 10% T80, 2% Benz, 2 hrs at room temperature) of 1.86 mg/mL. It also gave an M4N solubility ([1]; 28% EtOH, 30% PG, 30% Glyc, 10% T80, 2% Benz, 24 hrs at room temperature) of 2.22 mg/mL, an M4N solubility ([1]; 28% EtOH, 30% PG, 30% Glyc, 10% T80, 2% Benz, 48 hrs at room temperature) of 2.53 mg/mL and an M4N solubility ([1]; 28% EtOH, 30% PG, 30% PEG300, 10% T80, 2% Benz, 2 hrs at room temperature) of 8.87 mg/mL. The M4N solubility ([1]; 28% EtOH, 30% PG, 30% PEG300, 10% T80, 2% Benz, 24 hrs at room temperature) was 10.19 mg/mL, the M4N solubility ([1]; 28% EtOH, 30% PG, 30% PEG300, 10% T80, 2% Benz, 48 hrs at room temperature) was 10.27 mg/mL and the M4N solubility ([1]; 44% EtOH, 50% Crem, 6% DMA, 2 hrs at room temperature) was 14.85 mg/mL. It also gave an M4N solubility ([1]; 44% EtOH, 50% Crem, 6% DMA, 24 hrs at room temperature) of 20.42 mg/mL, an M4N solubility ([1]; 44% EtOH, 50% Crem, 6% DMA, 48 hrs at room temperature) of 21.08 mg/mL and an M4N solubility ([1]; 44% EtOH, 50% Glycerol, 6% DMA, 2 hrs at room temperature) of 1.43 mg/mL. It also gave an M4N solubility ([1]; 44% EtOH, 50% Glycerol, 6% DMA, 24 hrs at room temperature) of 1.90 mg/mL, an M4N solubility ([1]; 44% EtOH, 50% Glycerol, 6% DMA, 48 hrs at room temperature) of 2.01 mg/mL and an M4N solubility ([1]; 44% EtOH, 50% PEG300, 6% DMA, 2 hrs at room temperature) of 15.12 mg/mL. For the same compound, the M4N solubility ([1]; 44% EtOH, 50% PEG300, 6% DMA, 24 hrs at room temperature) was 18.61 mg/mL, the M4N solubility ([1]; 44% EtOH, 50% PEG300, 6% DMA, 48 hrs at room temperature) was 18.27 mg/mL and the M4N solubility ([1]; 44% EtOH, 50% PG, 6% DMA, 2 hrs at room temperature) was 4.80 mg/mL. For the same compound, the M4N solubility ([1]; 44% EtOH, 50% PG, 6% DMA, 24 hrs at room temperature) was 5.48 mg/mL, the M4N solubility ([1]; 44% EtOH, 50% PG, 6% DMA, 48 hrs at room temperature) was 2.93 mg/mL and the M4N solubility ([1]; 44% EtOH, 50% T80, 6% DMA, 2 hrs at room temperature) was 17.72 mg/mL. It also gave an M4N solubility ([1]; 44% EtOH, 50% T80, 6% DMA, 24 hrs at room temperature) of 22.41 mg/mL.
